Measurements reported in patent US9181234B2, “Antibacterial compounds” (priority 2010, dated 2015).
Values after ≈ are worked out from the molar mass of the structure shown.

Tests used:
[1] = physchem; settings: kinetic from dmso stock
Procedure, shortened: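 DMSO doubling dilutions were diluted twenty-fold into 100 mM citrate (pH 4), PBS (pH 7.4) or carbonate-bicarbonate (pH 9). After 24 h equilibration at room temperature, absorbance was read at 620 nm. The reported value is the highest concentration without measurable precipitate.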

[2] = test system: Staphylococcus aureus (Isolate ID ATCC 29213); assay: Antibacterial activity, MIC, S. aureus; format: cell-based; settings: Staphylococcus aureus, ATCC29213, Gram positive strain; broth microdilution or agar dilution
Procedure, shortened: (§1)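 CLSI-guided dilution susceptibility testing (broth or agar) gave the MIC for each strain.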

[3] = test system: Enterococcus faecalis (Isolate ID ATCC 29212); assay: Antibacterial activity, MIC, E. faecalis; format: cell-based; settings: Enterococcus faecalis, ATCC29212; Gram positive strain; broth microdilution or agar dilution
Procedure, shortened: as §1

[4] = test system: Streptococcus pyogenes (Isolate ID ATCC 51339); assay: Antibacterial activity, MIC, S. pyogenes; format: cell-based; settings: Streptococcus pyogenes, ATCC51339, Gram positive strain; broth microdilution or agar dilution
Procedure, shortened: as §1

[5] = test system: Haemophilus influenzae (Isolate ID ATCC 49247); assay: Antibacterial activity, MIC, H. influenzae; format: cell-based; settings: Haemophilus influenzae, ATCC49247; Gram negative strain; broth microdilution or agar dilution
Procedure, shortened: as §1

[6] = Pharmacokinetic assay, IV and oral PK profile, rat; format: in vivo; settings: for bioavailability: read-out: F (%) bioavailability
Procedure: (§2) Pharmacokinetic Assays: Determination of PK Profile
(§3) The pharmacokinetic profiles of compounds were determined by measuring the compound concentration in plasma by LC/MS/MS following a single intravenous or peroral administration of the compounds at a dose of 3 mg/kg. The concentrations described are the mean plasma concentrations at each time point from three animals. Intravenous dose formulation was administered as a single bolus dose through the tail vein. Oral dose formulation was administered to animals by an oral gavage needle. In both cases the dose volume was 5.0 mL/kg. Blood was collected from rats using a jugular vein catheter and from anesthetized mice through a capillary guided into the retro-orbital plexus. The collected blood was centrifuged to obtain plasma and the compounds extracted into methanol prior to determining the compound concentration by LC/MS/MS. The results for selected compounds of the invention are shown in FIGS. 2 to 8 where the X axis denotes time (hours) and the Y axis denotes plasma concentration (ng/mL). The Cmaxoral (μg/mL), AUCiv (μg·hr/mL), AUCoral (μg.hr/mL) and F(%) values are provided in the following table where Cmaxoral is the maximum oral concentration, AUC is area under the curve for intraveneous (IV) and oral and F (%) represents compound bioavailability as calculated by [AUCoral/AUCiv]×100%.

[7] = Pharmacokinetic assay, IV and oral PK profile, mouse; format: in vivo; settings: plasma; for bioavailability: [AUCoral/AUCiv]×100%, 3 mg/kg, read-out: F (%) bioavailability
Procedure: as §2, §3

[8] = pH 7.4, aqueous buffer, Max Solubility
[9] = pH 7.4, aqueous buffer, Solubility (pH 7.4)
[10] = pH 7.4, aqueous buffer, Solubility Range
[11] = pH 7.4, aqueous buffer, Solubility Range (maximum solubility)
[12] = po, single peroral dose 3 mg/kg, plasma, read-out: AUCoral
[13] = single peroral dose 3 mg/kg, plasma
[14] = po, single peroral dose 3 mg/kg, read-out: AUCoral
[15] = single intravenous dose 3 mg/kg, read-out: AUCiv
[16] = plasma, po, [AUCoral/AUCiv]×100%, 3 mg/kg
[17] = single intravenous dose 3 mg/kg, plasma, read-out: AUCiv

Row | Structure (SMILES) | solubility at 24 h [1, 8] | solubility at 24 h [1, 9] | solubility at 24 h [1, 10] | solubility at 24 h [1, 11] | MIC [2] | MIC [3] | MIC [4] | MIC [5] | F (%) bioavailability ([6]; [AUCoral/AUCiv]×100%, 3 mg/kg) | AUC [6, 12] | AUCiv ([6]; single intravenous dose 3 mg/kg, plasma) | Cmaxoral [6, 13] | bioavailability ([7]; po) | AUC [7, 14] | AUC [7, 15] | Cmaxoral ([7]; single peroral dose 3 mg/kg) | bioavailability [6, 16] | AUC [6, 17] | solubility at 24 h ([1]; pH 9, aqueous buffer, Max Solubility) | solubility at 24 h ([1]; pH 9, aqueous buffer, Solubility Range (maximum solubility))
1 | CCNC(=O)Nc1nc2cc(-c3cnc(N4CCC(C)(C(=O)O)CC4)nc3)cc(-c3ccccn3)c2s1 [Compound 1, 1-[5-[2-(ethylcarbamoylamino)-7-(2-pyridyl)-1,3-benzothiazol-5-yl]pyrimidin-2-yl]-4-methyl-piperidine-4-carboxylic acid] | ≥ 800 µg/mL | ≥ 800 µg/mL | > 800 µg/mL | > 800 µg/mL | ≤ 0.25 µg/mL | ≤ 0.25 µg/mL | ≤ 0.25 µg/mL | 1 to 16 µg/mL (≈ 1.93 to 30.9 µM) | 48% | 8300 ng·h/mL | 17400 ng·h/mL | 1800 ng/mL | – | – | – | – | – | – | – | –
2 | CCNC(=O)Nc1nc2cc(-c3ccc(N4CCC(C)(C(=O)O)CC4)nc3)cc(-c3ccccn3)c2s1 [Compound 4] | ≥ 800 µg/mL | ≥ 800 µg/mL | > 800 µg/mL | > 800 µg/mL | 0.25 to 1 µg/mL (≈ 0.484 to 1.94 µM) | ≤ 0.25 µg/mL | ≤ 0.25 µg/mL | 1 to 16 µg/mL (≈ 1.94 to 31 µM) | – | 2100 ng·h/mL | – | 600 ng/mL | 33% | 2500 ng·h/mL | 7600 ng·h/mL | 1700 ng/mL | 31% | 6600 ng·h/mL | – | –
3 | CCNC(=O)Nc1nc2cc(-c3cnc(N4CCC(C)(C(=O)O)CC4)nc3)cc(-c3cscn3)c2s1 [Compound 21] | – | ≥ 800 µg/mL | > 800 µg/mL | – | ≤ 0.25 µg/mL | ≤ 0.25 µg/mL | 0.25 to 1 µg/mL (≈ 0.477 to 1.91 µM) | 1 to 16 µg/mL (≈ 1.91 to 30.6 µM) | – | 1000 ng·h/mL | – | 400 ng/mL | – | – | – | – | 14.3% | 7100 ng·h/mL | – | –
4 | CCNC(=O)Nc1nc2cc(-c3cnc(N4CCC(C)(C(=O)O)CC4)nc3)cc(/C(C)=N/OC)c2s1 [Compound 88, 1-[5-[2-(ethylcarbamoylamino)-7-[(E)-N-methoxy-C-methyl-carbonimidoyl]-1,3-benzothiazol-5-yl]pyrimidin-2-yl]-4-methyl-piperidine-4-carboxylic acid] | ≥ 800 µg/mL | ≥ 800 µg/mL | > 800 µg/mL | > 800 µg/mL | ≤ 0.25 µg/mL | ≤ 0.25 µg/mL | ≤ 0.25 µg/mL | 1 to 16 µg/mL (≈ 1.95 to 31.3 µM) | – | – | – | – | 56% | 3400 ng·h/mL | 6100 ng·h/mL | 2000 ng/mL | – | – | – | –
5 | CCNC(=O)Nc1nc2cc(-c3cnc(N4CCC(CC)(C(=O)O)CC4)nc3)cc(-c3ccccn3)c2s1 [Compound 98] | – | ≥ 800 µg/mL | > 800 µg/mL | – | ≤ 0.25 µg/mL | ≤ 0.25 µg/mL | ≤ 0.25 µg/mL | 1 to 16 µg/mL (≈ 1.88 to 30.1 µM) | – | 22200 ng·h/mL | – | 3500 ng/mL | 87% | 12500 ng·h/mL | 14300 ng·h/mL | 6100 ng/mL | 80.4% | 27700 ng·h/mL | – | –
6 | CCNC(=O)Nc1nc2cc(-c3ccc(N4CCC(CC)(C(=O)O)CC4)nc3)cc(-c3ccccn3)c2s1 [Compound 103] | – | 400 µg/mL (≈ 754 µM) | 400 to 800 µg/mL (≈ 754 to 1510 µM) | – | ≤ 0.25 µg/mL | ≤ 0.25 µg/mL | ≤ 0.25 µg/mL | 1 to 16 µg/mL (≈ 1.88 to 30.2 µM) | – | 22200 ng·h/mL | – | 5700 ng/mL | – | – | – | – | 76.5% | 29000 ng·h/mL | ≥ 800 µg/mL | > 800 µg/mL
7 | C=CCC1(C(=O)O)CCN(c2ncc(-c3cc(-c4ccccn4)c4sc(NC(=O)NCC)nc4c3)cn2)CC1 [Compound 136] | ≥ 800 µg/mL | ≥ 800 µg/mL | > 800 µg/mL | > 800 µg/mL | ≤ 0.25 µg/mL | ≤ 0.25 µg/mL | ≤ 0.25 µg/mL | 1 to 16 µg/mL (≈ 1.84 to 29.4 µM) | – | 34800 ng·h/mL | – | 5500 ng/mL | 83% | 16500 ng·h/mL | 20000 ng·h/mL | 4400 ng/mL | 95.9% | 36300 ng·h/mL | – | –
